Drawing on US7223780B2, “Triazole-derivatives as blood clotting enzyme factor Xa inhibitors” (Sanofi-Aventis Deutschland GmbH, priority 2003, dated 2007), this text covers Ki for four compounds.

pKi: −log10 of the molar value.

For the experiment, the target named is T1, human factor Xa (Homo sapiens, UniProt P00742).
T1 construct: 25 μl human factor Xa (Enzyme Research Laboratories, Inc; South Bend, Ind.); purchased Enzyme Research Laboratories, Inc; South Bend, Ind
The experiment in a line: Factor Xa chromogenic assay (substrate S-2765). To be noted: inhibition constant for factor Xa, calculated from IC50 by Ki=IC50/{1+(substrate concentration/Km)}; 0.5 nM enzyme, 140 μM S-2765, 25° C.; read-out: Ki(FXa). The class given is biochemical. The procedure:
The ability of the compounds of the formula I or II to inhibit factor Xa or factor VIIa or other enzymes like thrombin, plasmin, or trypsin can be assessed by determining the concentration of the compound of the formula I or II that inhibits enzyme activity by 50%, i.e. the IC50 value, which was related to the inhibition constant Ki. Purified enzymes were used in chromogenic assays. The concentration of inhibitor that causes a 50% decrease in the rate of substrate hydrolysis was determined by linear regression after plotting the relative rates of hydrolysis (compared to the uninhibited control) versus the log of the concentration of the compound of formulae I, II, Ia, Ib, Ic, Id, IIa, IIb or IId. For calculating the inhibition constant Ki, the IC50 value was corrected for competition with substrate using the formula Ki=IC50/{1+(substrate concentration/Km)} wherein Km is the Michaelis-Menten constant (Chen and Prusoff, Biochem. Pharmacol. 22 (1973) 3099–3108; I. H. Segal, Enzyme Kinetics, 1975, John Wiley & Sons, New York, 100–125; which were incorporated herein by reference). a) Factor Xa Assay
In the assay for determining the inhibition of factor Xa activity TBS-PEG buffer (50 mM Tris-HCl, pH 7.8, 200 mM NaCl, 0.05% (w/v) PEG-8000, 0.02% (w/v) NaN3) was used. The IC50 was determined by combining in appropriate wells of a Costar half-area microtiter plate 25 μl human factor Xa (Enzyme Research Laboratories, Inc.; South Bend, Ind.) in TBS-PEG; 40 μl 10% (v/v) DMSO in TBS-PEG (uninhibited control) or various concentrations of the compound to be tested diluted in 10% (v/v) DMSO in TBS-PEG; and substrate S-2765 (N((α)-benzyloxycarbonyl-D-Arg-Gly-L-Arg-p-nitroanilide; Kabi Pharmacia, Inc.; Franklin, Ohio) in TBS-PEG.
The assay was performed by pre-incubating the compound of formula I or II plus enzyme for 10 min. Then the assay was initiated by adding substrate to obtain a final volume of 100 μl. The initial velocity of chromogenic substrate hydrolysis was measured by the change in absorbance at 405 nm using a Bio-tek Instruments kinetic plate reader (Ceres UV900HDi) at 25° C. during the linear portion of the time course (usually 1.5 min after addition of substrate). The enzyme concentration was 0.5 nM and substrate concentration was 140 μM.

T1 sequence (P00742 235-488 limits assumed): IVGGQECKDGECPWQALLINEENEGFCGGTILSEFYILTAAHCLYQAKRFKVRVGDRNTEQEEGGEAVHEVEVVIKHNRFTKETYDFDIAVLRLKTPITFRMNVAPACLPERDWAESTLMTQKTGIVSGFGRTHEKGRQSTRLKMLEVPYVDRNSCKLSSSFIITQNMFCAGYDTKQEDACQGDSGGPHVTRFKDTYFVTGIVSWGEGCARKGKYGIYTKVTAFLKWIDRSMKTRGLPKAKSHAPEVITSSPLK
T1 sequence (P00742 41-179 partner limits assumed): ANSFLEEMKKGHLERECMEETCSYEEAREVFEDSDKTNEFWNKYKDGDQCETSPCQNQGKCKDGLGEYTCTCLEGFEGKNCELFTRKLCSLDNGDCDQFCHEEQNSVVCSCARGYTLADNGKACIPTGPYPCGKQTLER

One may read the pKi as −log10 of the Ki, conventionally taken in molar units. Regarding `CC(C)N1CCC(NC(=O)c2nc(-n3cccc3)n(Cc3cc(-c4ccc(Cl)s4)on3)n2)CC1` [Example 1, 1-[5-(5-Chloro-thiophen-2-yl)-isoxazol-3-ylmethyl]-5-pyrrol-1-yl-1H-[1,2,4]triazole-3-carboxylic acid (1-isopropyl-piperidin-4-yl)-amide], the pKi was 7.27.

As for `CC(C)N1CCC(NC(=O)c2nnn(Cc3cc(-c4ccc(Cl)s4)on3)n2)CC1` [Example 5, 2-[5-(5-Chloro-thiophen-2-yl)-isoxazol-3-ylmethyl]-2H-tetrazole-5-carboxylic acid (1-isopropyl-piperidin-4-yl)-amide], the pKi was 6.48.

On to `CC(C)N1CCC(NC(=O)c2nc(-c3ccccn3)n(Cc3cc(-c4ccc(Cl)s4)on3)n2)CC1` [Example 2, 1-[5-(5-Chloro-thiophen-2-yl)-isoxazol-3-ylmethyl]-5-pyridin-2-yl-1H-[1,2,4]triazole-3-carboxylic acid (1-isopropyl-piperidin-4-yl)-amide], for which the pKi is 7.10.

In the case of `CC(C)N1CCC(NC(=O)c2nc(-c3ccccn3)nn2Cc2cc(-c3ccc(Cl)s3)on2)CC1` [Example 3, 2-[5-(5-Chloro-thiophen-2-yl)-isoxazol-3-ylmethyl]-5-pyridin-2-yl-2H-[1,2,4]triazole-3-carboxylic acid (1-isopropyl-piperidin-4-yl)-amide], the pKi was 7.00.
